Laboratory results published in PubChem BioAssay (NCI).
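Method: 48-hour compound exposure of cells in 96-well plates, five concentrations, linear interpolation of endpoints. GI50: concentration for 50% inhibition of growth. TGI denotes the concentration required for complete inhibition of growth.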

Key:
Assay in all cases: NCI-60 cell line screen, 48 h
786-0 renal = system: 786-0 renal
A498 renal = system: A498 renal
A549 NSCLC = system: A549 NSCLC
ACHN renal = system: ACHN renal
BT-549 breast = system: BT-549 breast
CAKI-1 renal = system: CAKI-1 renal
CCRF-CEM leukemia = system: CCRF-CEM leukemia
COLO 205 colon = system: COLO 205 colon
DU-145 prostate = system: DU-145 prostate
EKVX NSCLC = system: EKVX NSCLC
HCC-2998 colon = system: HCC-2998 colon
HCT-116 colon = system: HCT-116 colon
HCT-15 colon = system: HCT-15 colon
HL-60(TB) leukemia = system: HL-60(TB) leukemia
HOP-62 NSCLC = system: HOP-62 NSCLC
HOP-92 NSCLC = system: HOP-92 NSCLC
HS 578T breast = system: HS 578T breast
HT29 colon = system: HT29 colon
IGROV1 ovarian = system: IGROV1 ovarian
K-562 leukemia = system: K-562 leukemia
KM12 colon = system: KM12 colon
LOX IMVI melanoma = system: LOX IMVI melanoma
M14 melanoma = system: M14 melanoma
MALME-3M melanoma = system: MALME-3M melanoma
MCF7 breast = system: MCF7 breast
MDA-MB-231 breast = system: MDA-MB-231 breast
MDA-MB-435 = system: MDA-MB-435
MDA-MB-468 breast = system: MDA-MB-468 breast
MOLT-4 leukemia = system: MOLT-4 leukemia
NCI-H226 lung = system: NCI-H226 lung
NCI-H23 lung = system: NCI-H23 lung
NCI-H460 lung = system: NCI-H460 lung
NCI-H522 lung = system: NCI-H522 lung
NCI/ADR-RES ovarian = system: NCI/ADR-RES ovarian
OVCAR-3 ovarian = system: OVCAR-3 ovarian
OVCAR-4 ovarian = system: OVCAR-4 ovarian
OVCAR-5 ovarian = system: OVCAR-5 ovarian
OVCAR-8 ovarian = system: OVCAR-8 ovarian
PC-3 prostate = system: PC-3 prostate
RPMI-8226 leukemia = system: RPMI-8226 leukemia
RXF 393 renal = system: RXF 393 renal
SF-268 CNS = system: SF-268 CNS
SF-295 CNS = system: SF-295 CNS
SF-539 CNS = system: SF-539 CNS
SK-MEL-2 melanoma = system: SK-MEL-2 melanoma
SK-MEL-28 melanoma = system: SK-MEL-28 melanoma
SK-MEL-5 melanoma = system: SK-MEL-5 melanoma
SK-OV-3 ovarian = system: SK-OV-3 ovarian
SN12C renal = system: SN12C renal
SNB-19 CNS = system: SNB-19 CNS
SNB-75 CNS = system: SNB-75 CNS
SR leukemia = system: SR leukemia
SW-620 colon = system: SW-620 colon
T-47D breast = system: T-47D breast
TK-10 renal = system: TK-10 renal
U251 CNS = system: U251 CNS
UACC-257 melanoma = system: UACC-257 melanoma
UACC-62 melanoma = system: UACC-62 melanoma
UO-31 renal = system: UO-31 renal

Question: `COc1cc(Nc2nc(O)c(/C=C3\C=Nc4ccccc43)s2)cc(OC)c1OC` was tested. Which GI50 (786-0 renal) did it give?
Answer: 2.72 µM

Question: And the TGI (786-0 renal)?
Answer: 11.9 µM

Question: What about the GI50 (A498 renal) of the same molecule?
Answer: 10.2 µM

Question: What about the TGI (A498 renal) of the same molecule?
Answer: 24.6 µM

Question: What about the GI50 (A549 NSCLC) of the same molecule?
Answer: 2.84 µM

Question: And the TGI (A549 NSCLC)?
Answer: 16.5 µM

Question: And the GI50 (ACHN renal)?
Answer: 3.2 µM

Question: And the TGI (ACHN renal)?
Answer: 12 µM

Question: And the GI50 (BT-549 breast)?
Answer: 0.81 µM

Question: And the TGI (BT-549 breast)?
Answer: 10.7 µM

Question: And the GI50 (CAKI-1 renal)?
Answer: 0.84 µM

Question: What about the TGI (CAKI-1 renal) of the same molecule?
Answer: 10.3 µM

Question: And the GI50 (CCRF-CEM leukemia)?
Answer: 2.09 µM

Question: And the TGI (CCRF-CEM leukemia)?
Answer: > 100 µM

Question: What about the GI50 (COLO 205 colon) of the same molecule?
Answer: 3.14 µM

Question: What about the TGI (COLO 205 colon) of the same molecule?
Answer: 16.4 µM

Question: And the GI50 (DU-145 prostate)?
Answer: 4.63 µM

Question: What about the TGI (DU-145 prostate) of the same molecule?
Answer: 17.2 µM

Question: What about the GI50 (EKVX NSCLC) of the same molecule?
Answer: 8.02 µM

Question: What about the TGI (EKVX NSCLC) of the same molecule?
Answer: 22.2 µM

Question: And the GI50 (HCC-2998 colon)?
Answer: 6.36 µM

Question: And the TGI (HCC-2998 colon)?
Answer: 20.7 µM

Question: What about the GI50 (HCT-116 colon) of the same molecule?
Answer: 1.1 µM

Question: And the TGI (HCT-116 colon)?
Answer: 10.2 µM

Question: And the GI50 (HCT-15 colon)?
Answer: 1.79 µM

Question: What about the TGI (HCT-15 colon) of the same molecule?
Answer: 12.4 µM

Question: What about the GI50 (HL-60(TB) leukemia) of the same molecule?
Answer: 0.854 µM

Question: And the TGI (HL-60(TB) leukemia)?
Answer: 11.1 µM

Question: What about the GI50 (HOP-62 NSCLC) of the same molecule?
Answer: 2.69 µM

Question: And the TGI (HOP-62 NSCLC)?
Answer: 15.7 µM

Question: What about the GI50 (HOP-92 NSCLC) of the same molecule?
Answer: 1.98 µM

Question: And the TGI (HOP-92 NSCLC)?
Answer: 6.38 µM

Question: What about the GI50 (HS 578T breast) of the same molecule?
Answer: 2.33 µM

Question: What about the TGI (HS 578T breast) of the same molecule?
Answer: 11.9 µM

Question: What about the GI50 (HT29 colon) of the same molecule?
Answer: 0.923 µM

Question: And the TGI (HT29 colon)?
Answer: 10.1 µM

Question: What about the GI50 (IGROV1 ovarian) of the same molecule?
Answer: 4.91 µM

Question: And the TGI (IGROV1 ovarian)?
Answer: 21.6 µM

Question: What about the GI50 (K-562 leukemia) of the same molecule?
Answer: 0.526 µM

Question: What about the TGI (K-562 leukemia) of the same molecule?
Answer: 31.1 µM

Question: And the GI50 (KM12 colon)?
Answer: 0.977 µM

Question: What about the TGI (KM12 colon) of the same molecule?
Answer: 16.8 µM

Question: And the GI50 (LOX IMVI melanoma)?
Answer: 2.82 µM

Question: What about the TGI (LOX IMVI melanoma) of the same molecule?
Answer: 13.9 µM

Question: And the GI50 (M14 melanoma)?
Answer: 2.02 µM

Question: What about the TGI (M14 melanoma) of the same molecule?
Answer: 15.9 µM

Question: And the GI50 (MALME-3M melanoma)?
Answer: 2.01 µM

Question: And the TGI (MALME-3M melanoma)?
Answer: 15.2 µM

Question: And the GI50 (MCF7 breast)?
Answer: 1.79 µM

Question: What about the TGI (MCF7 breast) of the same molecule?
Answer: 11.9 µM

Question: What about the GI50 (MDA-MB-231 breast) of the same molecule?
Answer: 4.77 µM

Question: What about the TGI (MDA-MB-231 breast) of the same molecule?
Answer: 18.8 µM

Question: What about the GI50 (MDA-MB-435) of the same molecule?
Answer: 0.28 µM

Question: And the TGI (MDA-MB-435)?
Answer: 0.94 µM

Question: What about the GI50 (MDA-MB-468 breast) of the same molecule?
Answer: 0.657 µM

Question: And the TGI (MDA-MB-468 breast)?
Answer: 6.23 µM

Question: What about the GI50 (MOLT-4 leukemia) of the same molecule?
Answer: 2.63 µM

Question: And the TGI (MOLT-4 leukemia)?
Answer: 26 µM

Question: What about the GI50 (NCI-H226 lung) of the same molecule?
Answer: 3.18 µM

Question: What about the TGI (NCI-H226 lung) of the same molecule?
Answer: 17.4 µM

Question: What about the GI50 (NCI-H23 lung) of the same molecule?
Answer: 5.33 µM

Question: What about the TGI (NCI-H23 lung) of the same molecule?
Answer: 21.1 µM

Question: And the GI50 (NCI-H460 lung)?
Answer: 2.1 µM

Question: What about the TGI (NCI-H460 lung) of the same molecule?
Answer: 14.3 µM

Question: And the GI50 (NCI-H522 lung)?
Answer: 0.403 µM

Question: What about the TGI (NCI-H522 lung) of the same molecule?
Answer: 5.56 µM

Question: What about the GI50 (NCI/ADR-RES ovarian) of the same molecule?
Answer: 6.24 µM

Question: What about the TGI (NCI/ADR-RES ovarian) of the same molecule?
Answer: 24.2 µM

Question: What about the GI50 (OVCAR-3 ovarian) of the same molecule?
Answer: 0.517 µM

Question: And the TGI (OVCAR-3 ovarian)?
Answer: 5.32 µM

Question: And the GI50 (OVCAR-4 ovarian)?
Answer: 2.88 µM

Question: What about the TGI (OVCAR-4 ovarian) of the same molecule?
Answer: 10.6 µM

Question: What about the GI50 (OVCAR-5 ovarian) of the same molecule?
Answer: 4.58 µM

Question: And the TGI (OVCAR-5 ovarian)?
Answer: 17.7 µM

Question: What about the GI50 (OVCAR-8 ovarian) of the same molecule?
Answer: 10.6 µM

Question: What about the TGI (OVCAR-8 ovarian) of the same molecule?
Answer: 27.2 µM

Question: What about the GI50 (PC-3 prostate) of the same molecule?
Answer: 2.59 µM

Question: What about the TGI (PC-3 prostate) of the same molecule?
Answer: 22.6 µM

Question: What about the GI50 (RPMI-8226 leukemia) of the same molecule?
Answer: 5.73 µM

Question: What about the TGI (RPMI-8226 leukemia) of the same molecule?
Answer: > 100 µM

Question: And the GI50 (RXF 393 renal)?
Answer: 1 µM

Question: What about the TGI (RXF 393 renal) of the same molecule?
Answer: 5.8 µM

Question: And the GI50 (SF-268 CNS)?
Answer: 3.56 µM

Question: What about the TGI (SF-268 CNS) of the same molecule?
Answer: 20 µM

Question: And the GI50 (SF-295 CNS)?
Answer: 2.27 µM

Question: What about the TGI (SF-295 CNS) of the same molecule?
Answer: 13.4 µM

Question: And the GI50 (SF-539 CNS)?
Answer: 2.49 µM

Question: And the TGI (SF-539 CNS)?
Answer: 9.95 µM

Question: And the GI50 (SK-MEL-2 melanoma)?
Answer: 1.45 µM

Question: And the TGI (SK-MEL-2 melanoma)?
Answer: 12.2 µM

Question: And the GI50 (SK-MEL-28 melanoma)?
Answer: 6.07 µM

Question: And the TGI (SK-MEL-28 melanoma)?
Answer: 21 µM

Question: What about the GI50 (SK-MEL-5 melanoma) of the same molecule?
Answer: 2.46 µM

Question: And the TGI (SK-MEL-5 melanoma)?
Answer: 14.1 µM

Question: And the GI50 (SK-OV-3 ovarian)?
Answer: 2.56 µM

Question: And the TGI (SK-OV-3 ovarian)?
Answer: 10.3 µM

Question: What about the GI50 (SN12C renal) of the same molecule?
Answer: 3.85 µM

Question: And the TGI (SN12C renal)?
Answer: 15.1 µM

Question: And the GI50 (SNB-19 CNS)?
Answer: 6.6 µM

Question: What about the TGI (SNB-19 CNS) of the same molecule?
Answer: 21.2 µM

Question: What about the GI50 (SNB-75 CNS) of the same molecule?
Answer: 1.24 µM

Question: And the TGI (SNB-75 CNS)?
Answer: 3.63 µM

Question: What about the GI50 (SR leukemia) of the same molecule?
Answer: 0.394 µM

Question: And the TGI (SR leukemia)?
Answer: 29.9 µM

Question: What about the GI50 (SW-620 colon) of the same molecule?
Answer: 3.1 µM

Question: What about the TGI (SW-620 colon) of the same molecule?
Answer: 21.8 µM

Question: What about the GI50 (T-47D breast) of the same molecule?
Answer: 3.58 µM

Question: What about the TGI (T-47D breast) of the same molecule?
Answer: 19.7 µM

Question: And the GI50 (TK-10 renal)?
Answer: 8.56 µM

Question: And the TGI (TK-10 renal)?
Answer: 22.8 µM

Question: And the GI50 (U251 CNS)?
Answer: 3.27 µM

Question: What about the TGI (U251 CNS) of the same molecule?
Answer: 15.7 µM

Question: And the GI50 (UACC-257 melanoma)?
Answer: 5.18 µM

Question: And the TGI (UACC-257 melanoma)?
Answer: 21.1 µM

Question: And the GI50 (UACC-62 melanoma)?
Answer: 4.75 µM

Question: And the TGI (UACC-62 melanoma)?
Answer: 19.7 µM

Question: And the GI50 (UO-31 renal)?
Answer: 3.43 µM

Question: What about the TGI (UO-31 renal) of the same molecule?
Answer: 13.7 µM
